Assay: Solubility / dissolution in water and solid form stability of caspofungin propionate
Assay type: physicochemical

Row | SMILES | time to dissolve (533.5 mg crystalline salt in 5 ml aqueous mannitol 40 mg/ml / sucrose 60 mg/ml) [min] | solubility in water | stability of solid form (crystalline versus amorphous form)
1 | CCC(C)CC(C)CCCCCCCCC(=O)N[C@H]1C[C@@H](O)[C@@H](NCCN)NC(=O)[C@@H]2[C@@H](O)CCN2C(=O)[C@H]([C@H](O)CCN)NC(=O)[C@H]([C@H](O)[C@@H](O)c2ccc(O)cc2)NC(=O)[C@@H]2C[C@@H](O)CN2C(=O)[C@H]([C@@H](C)O)NC1=O (stereo partly drawn) [Caspofungin dipropionate, caspofungin dipropionate] | ≤ 3 | – | –
2 | CCC(C)CC(C)CCCCCCCCC(=O)N[C@H]1C[C@@H](O)[C@@H](NCCN)NC(=O)[C@@H]2[C@@H](O)CCN2C(=O)[C@H]([C@H](O)CCN)NC(=O)[C@H]([C@H](O)[C@@H](O)c2ccc(O)cc2)NC(=O)[C@@H]2C[C@@H](O)CN2C(=O)[C@H]([C@@H](C)O)NC1=O (stereo partly drawn) [Crystalline caspofungin propionate, caspofungin propionate] | – | freely soluble in water | more stable than the amorphous form
